Where “and” joins values, the source holds several entries; their conditions need not be identical. Equal entries are not always repeated. Where two headings read alike, the source gives them in different places.
What was measured:
human cytidine deaminase = human cytidine deaminase (Homo sapiens, UniProt P32320); experiment: Deamination by deoxycytidine deaminase (HPLC analysis); assay type: biochemical; settings: 37° C., 16 hours
Procedure: After each time point, 100 μl of acetonitrile were added to the reaction mixture and agitated. The precipitated proteins were removed by centrifugation, and the supernatent was lyophilized to dryness. The samples were reconstituted with 200 μl of HPLC mobile phase buffer and analyzed on an Alltech RP-18 column. […] The mobile phase was 10% acetonitrile/water unless specified otherwise, and the flow rate was 0.8 ml/minutes.

HBV [1] = tested on: HBV
mitochondria DNA = experiment: cells; assay type: cell-based; settings: for IC50: Homo sapiens, CCRF-CEM, CEM cells
Procedure: The CEM cells (5×10^4) cells were collected and freeze-thawed three times. The cell lysate was incubated with RNase (10 μg/ml) at 37° C. for 30 minutes. The sample was treated with proteinase K (100 μg/ml) at 55° C. for 1 hour. A 0.8 volume of supersaturated Nal (2.5 gNaI in 1 ml hot water) was added to the sample and heated at 90° C. for 10 minutes. The DNA was immobilized on nitrocellulose paper by using a slot blot apparatus (Schleicher & Schuell, Keene, NH). The mtDNA on the nitrocellulose paper was detected with a mtDNA specific probe as described previously (Chen, C. H., Cheng, Y. C., “relayed Cytotoxicity and Selective Loss of Mitochondria DNA in Cells Treated with the Anti-Human Immunodeficiency Virus Compound 2′,3′-Dideoxycytidine,” J. Biol. Chem. 264: 11934-11937, 1989).
(§1) Mitochondria DNA content was measured by slot blot hybridization analysis. […] Thus, D4C would be expected to have a mitochondria effect before the anti-HBV effect was achieved as the same phenomenon observed in treatment with ddC.

[2] = tested on: CEM (T lymphoblastoid cells) cells; experiment: Cytotoxicity in CEM cells (cell number at day 4); assay type: cell-based; settings: 4 days
Procedure: CEM (T lymphoblastoid cells) cells were inoculated in 5 ml RPMI 1640 supplemented with 5% fetal bovine serum at a concentration of 2×10^3 cells per ml. The cells were incubated with different concentrations of compounds for 4 days. At day 4, the cell number was determined by a coulter counter or a hemocytometer.
as §1

CEM cells = experiment: CEM growth with dialyzed FBS (cell number on days 2, 4 and 6); assay type: cell-based; settings: Homo sapiens, CCRF-CEM, RPMI 1640 + 5% dialyzed FBS, cell number versus days in culture, read-out: ID50 (CEM cell growth, toxicity)
Procedure: Six wells were seeded as controls. These wells were untreated. […] The cells were pipetted to break clumps, and then 1 ml was removed from each well and diluted into 9 ml saline. The saline+cells were pipetted well to break clumps and counted via a coutler counter. To determine ID50, cell number was plotted versus days in culture.

HBV [3] = settings: 12 days; for chromosomally integrated HBV DNA (amount and restriction enzyme pattern): 2.2.15 cells
Procedure: Drug-treated cells were lysed with a buffer containing 10 mM Tris pH 7.5, 5 mM EDTA, 150 mM NaCl and 1% SDS. The cell lysate was digested with 100 μg/ml proteinase K at 55° C. for at least 2 hours and deproteinized by extraction with phenol. Nucleic acids were precipitated with 2 volumes of ethanol. The pellet of nucleic acid was redissolved in 10 mM Tris pH 8.0, 1 mM EDTA followed by 100 μg per ml RNase treatment at 37° C. for 1 hour. Concentrated ammonium acetate was added to the aqueous phase to yield a final 0.4 M ammonium acetate solution. The nucleic acids were precipitated with ethanol.
The chromosomally integrated HBV DNA genome and the episomal DNA can be separated in the gel and can be differentially quantified.

HBV [4] = experiment: Northern blot analysis of HBV-specific RNA transcripts in 2.2.15 cells; assay type: cell-based, hepatitis B virus; settings: 2.0 μM, 12 days
Procedure: Total cellular RNA was isolated according to Chomczyndki et al. (Chomczynsk, P., and Sacchi, N., “Single Step Method for RNA Isolation by Acid Guanidinium Thiocyanate-Phenol-Chloroform Extraction,” Analytical Biochemistry, 162: 156-159, 1987). The RNA (20 μg per lane) was electrophoresed through 1% agarose gel containing 1.1×formaldehyde and transferred to Hybond-N membrane. The immobilized RNA was hybridized with ^32P-labeled HBV DNA probe and the membrane was autoradiographed as described above.
Northern blot analysis was performed to analyze HBV RNA transcripts. Three major transcripts of approximately 3.5, 2.5, and 2.1 Kb were detected in the total cellular RNA extract.

[5] = read-out: MTID30 (concentration which caused a 50% reduction in mitochondria DNA content)

Sequence of human cytidine deaminase (P32320 whole entry): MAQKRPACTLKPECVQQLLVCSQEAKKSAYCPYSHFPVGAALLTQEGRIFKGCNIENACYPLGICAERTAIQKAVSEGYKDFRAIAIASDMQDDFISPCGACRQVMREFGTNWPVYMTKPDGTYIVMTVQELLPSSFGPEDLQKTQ

## Nc1ccn([C@@H]2CS[C@@H](CO)O2)c(=O)n1 [α-3′-Thia-2′,3′-dideoxycytidine]
Human cytidine deaminase
  deamination by deoxycytidine deaminase: no deamination occurred

## Nc1ccn([C@H]2C=C[C@@H](CO)O2)c(=O)n1 [D4C, 2′,3′-didehydro-2′,3′-dideoxycytidine]
HBV [1]
  IC50: 2400 nM
  selectivity ratio: 9.2
Mitochondria DNA; [5]
  IC50: 2000 nM
Mitochondria DNA; read-out: MtID50
  IC50: 2000 nM
[2]
  ED50 (concentration causing 50% reduction in cell number): 22000 nM

## Nc1ccn([C@@H]2CS[C@H](CO)O2)c(=O)n1 [(−)3′-thia-2′,3′-dideoxycytidine]
Human cytidine deaminase
  deamination by deoxycytidine deaminase: no sign of deamination at all

## Nc1ccn([C@H]2CS[C@@H](CO)O2)c(=O)n1 [(+)3′-thia-2′,3′-dideoxycytidine]
HBV [1]
  inhibition: ~50%
CEM cells
  IC50: 1260 nM
Human cytidine deaminase
  deamination by deoxycytidine deaminase: ~100%

## Nc1ccn(C2COC(CO)O2)c(=O)n1 (single isomer, unassigned; (-)) [(−) OddC, (−)-L-B-dioxolane-cytosine]
HBV [1]
  IC50: < 1 nM

## Nc1nc(=O)n([C@H]2CS[C@@H](CO)O2)cc1F (racemic) [5-fluoro-3′-thia-2′,3′-dideoxycytidine, (±)5-fluoro-3′-thia-2′,3′-dideoxycytidine]
HBV [1]
  IC50: 100 nM
  selectivity ratio: > 2000
Mitochondria DNA
  effect on mitochondria DNA synthesis: no effect on mitochondria DNA synthesis was observed
Mitochondria DNA; [5]
  IC50: > 200000 nM
HBV [3]
  chromosomally integrated HBV DNA (amount and restriction enzyme pattern): unaltered
HBV [3]; listed as 5-fluoro-3′-thia-2′,3-dideoxycytidine
  chromosomally integrated HBV DNA (amount and restriction enzyme pattern): not found to affect the integrated HBV DNAs
HBV [3]; different concentrations
  episomal HBV DNA in 2.2.15 cells: decreased in a dose dependent manner
HBV [4]
  HBV specific RNA transcripts (3.5, 2.5, 2.1 Kb): not affected at all

## Nc1ccn([C@H]2CC[C@@H](CO)O2)c(=O)n1 [ddC, 2′,3′ dideoxycytidine]
HBV [1]
  IC50: 3800 nM and 3600 nM
  selectivity ratio: 2.6
Mitochondria DNA; [5]
  IC50: 22 nM
Mitochondria DNA; read-out: MtID50
  IC50: 22 nM

## Nc1ccn([C@H]2C[C@H](F)[C@@H](CO)O2)c(=O)n1 [3′-FddC, 3′-fluoro-2′,3′-dideoxycytidine]
HBV [1]
  IC50: 1600 nM
  selectivity ratio: 28.1
HBV [1]; 2 µM
  inhibition: ~50%
Mitochondria DNA; [5]
  IC50: 110 nM
[2]
  ED50 (concentration causing 50% reduction in cell number): 45000 nM
